In general, melting point refers to the temperature of the solid-liquid transition.

`CSc1nn2c(N)cc(C(C)C)nc2c1S(=O)(=O)c1ccccc1`: the melting point fell in the range of 210 to 211 °C.

`Cc1ccc(CC2=NOS(=O)N2)cc1C` (centres undefined) had a melting point of 127 to 130 °C.

In the case of `O=c1c(-c2cccc(C(F)(F)F)c2)ccc2ccccn12`, the melting point lay in the range of 110 to 111 °C.

`COC(=O)COc1c(F)cc(SCCNS(=O)(=O)c2ccc(Cl)cc2)cc1F`: the melting point fell in the range of 79.5 to 80.5 °C.

In the case of `COC(=O)CCc1c(C(C)C)cc(C(C)C)cc1C(C)C`, the melting point was in the range of 45 to 47 °C.

As to `CCCCCC1COc2cc(CCC3=Cc4cc(F)cc(F)c4OC3)c(F)cc2C1` (centres undefined), the melting point was determined as 84 °C.

In the case of `CC(C)C[C@@H](C(=O)N1CCN(C(c2ccc(F)cc2)c2ccc(F)cc2)CC1)N(C)C1CCCCC1`, the melting point was 171 to 182 °C.

In turn, `COCn1cc(C(=O)c2ccccc2)c(-c2cccc(Cl)c2)n1` showed a melting point of 106 to 108 °C.

For the compound `O=C(CCl)Nc1ccc(-c2nc3ccccc3s2)cc1I`, the melting point lay within 192 to 194 °C.

For `O=C(O)c1cc(Cl)cc2c1OCCO2`, the melting point was 180 °C.

The compound `COC(=O)c1ccc(OCCN2C(=O)c3ccccc3C2=O)cc1` returned a melting point of 129 to 130 °C.

The compound `COc1cc2sc(C#N)cc2cc1OC(F)F` gave a melting point of 99 to 101 °C.

With `Cc1ccccc1C(=NC(=Nc1ccccc1)N1CCC(=O)CC1)Nc1ccc(F)cc1`, the melting point is 234 to 235 °C.

In turn, `COn1c(Br)c(C#N)c(Br)c1-c1ccc(Cl)cc1` showed a melting point of 195 to 197 °C.

Take `CON=C(C(C)=NN=Cc1ccccc1C(=NOC)C1=NOCCO1)c1ccccc1`: the melting point came out at 136 °C.

In turn, `CCOC(=O)CCCCCN(C)S(=O)(=O)C1=C(C)NC(C)=C(C(=O)OC)C1c1cccc([N+](=O)[O-])c1` (centres undefined) gave a melting point of 83 to 86 °C.

On to `COc1ccc2cc([C@H](C)C(=O)NNC(=O)CCCO[N+](=O)[O-])ccc2c1`, for which the melting point is 117 to 119 °C.

Compound `CC(=O)NC[C@H]1CN(c2ccc(N3CCC4(CC3)C[C@@H]4C#N)c(F)c2)C(=O)O1` yielded a melting point of 156 °C.

Compound `O=C(OO)c1cccc(Cl)c1` gave a melting point of 127 to 129 °C.

With `O=CNc1ccccc1C1=NN(c2ccc(Cl)cc2)C(=O)C1`, the melting point is 170 to 172 °C.

As to `NC(=O)c1ccccc1Sc1ccccc1[N+](=O)[O-]`, the melting point fell in the range of 166 to 167 °C.

Take `CC1CC2C(=CCC3(C)C(C(=O)CCl)=CCC23)C2(C)C=CC(=O)C=C12` (centres undefined): the melting point amounted to 164 °C.

`Clc1ccc(C2=NNCC2c2ccccc2)cc1` (centres undefined): the melting point lay within 156 to 162 °C.

Regarding `c1cn2nc(N3CCCCC3)c3c(c2n1)CCCC3`, the melting point was found to be 95 °C.

Turning to `Cc1nn(-c2ccccn2)cc1COc1ccc(CO)cc1`, the melting point fell in the range of 83 to 84 °C.

`CC1(C)OCC[C@@H]2[C@@H](NC(=O)OCc3ccccc3)C(=O)N21` (relative stereo): the melting point was in the range of 129 to 131 °C.

Regarding `CC(C)NCC(O)COc1ccc(CCOC2CCCC2)cc1` (centres undefined), the melting point was 66 °C.

Turning to `COc1ccc(Nc2nccc3ccn(S(=O)(=O)c4ccc(OC)cc4)c23)cc1`, the melting point lay within 156 to 158 °C.

On to `COc1ccc(N2CCN(c3ccc(NC(=S)NC(C)(C)CO)cc3)CC2)cc1`, for which the melting point was found to be 222 °C.

Compound `O=C1CCCC(=O)N1c1cc(I)cc(I)c1` came in with a melting point of 177 to 178 °C.

As for `CSc1nnc(C(N)(c2ccc(Cl)cc2)c2ccc3nc(C)cc(-c4cccc(Cl)c4)c3c2)n1C` (centres undefined), the melting point was determined as 128 °C.

In turn, `CCCCCCCCCCCCc1nnn(C(C(=O)Nc2c(OC)cc(OC)cc2OC)C(C)C)n1` (centres undefined) showed a melting point of 135 to 137 °C.

In the case of `CON(C)C(=O)Nc1c(C(=O)c2cc(C)ccn2)[nH]c2cc(Cl)ccc12`, the melting point was in the range of 199 to 200 °C.

`CCCSc1c[nH]nc1C1=CCCN(C)C1` yielded a melting point of 111 °C.

The compound `CN(C)C(=O)CCc1c(-c2ccccc2)n(C)c(=O)c2ccccc12` yielded a melting point of 166 °C.

On to `CCCc1cc(NC(=O)C(=O)OCC)sc1C(=O)OCC`, for which the melting point is 93 to 94 °C.

`CC(=O)NC[C@H]1CN(c2ccc(N3CCC(F)(CN)CC3)c(F)c2)C(=O)O1` had a melting point of 152 to 155 °C.

Compound `CN(C)C(=C[N+](=O)[O-])NCc1cnc(Cl)s1` yielded a melting point of 101 to 102 °C.

The compound `C=CCc1cc2c(cc1O)C(C)(C)C(CCO)O2` (centres undefined) yielded a melting point of 55 to 58 °C.

In turn, `Cc1cc(F)ccc1C(=C(C=CC=O)c1nnnn1C)c1ccc(F)cc1C` gave a melting point of 75 to 95 °C.

`CCOC(=O)C1=CC(C(=O)c2ccccc2O)=CN2CCc3c([nH]c4ccc(OC)cc34)C12C(=O)OCC` (centres undefined) returned a melting point of 212 °C.

For the compound `COC(=O)c1cc(Cl)ccc1N(C(C)C)S(=O)(=O)c1ccc(C)cc1`, the melting point was 114 to 116 °C.

`CC(C)c1ccc(C(=O)C23CC4CC(CC(C4)C2)C3)c(C(C)C)c1OS(N)(=O)=O` came in with a melting point of 165 to 167 °C.

In turn, `Clc1ccc(Nc2nc3ccccc3c3c2ncn3-c2ccco2)cc1Cl` returned a melting point of 135 to 138 °C.

For `C=C(c1ccc(N(C)C)cc1)c1ccc(N(C)C)cc1`, the melting point amounted to 115 °C.

Turning to `CCCCOCCCNC(=O)c1cnc(C(=O)NCC(=O)OCCCC)c(OC)c1`, the melting point is 115 to 117 °C.

Compound `Cc1cc(N(C)C)cc(C)c1NC(NCCCCCCCc1ccc(C(C)(C)C)cc1)=C1C(=O)COC1=O` returned a melting point of 144 to 147 °C.

For the compound `Cc1cc([N+](=O)[O-])c(NCC(C)O)c([N+](=O)[O-])c1` (centres undefined), the melting point came out at 80 °C.

On to `c1ccc(Cn2cnc3ccc(NC4=NCCN4)cc32)cc1`, for which the melting point lay within 174 to 175 °C.

The compound `O=C(O)CCc1oc(SCc2cccnc2)nc1-c1ccc(Cl)cc1` showed a melting point of 129 to 130 °C.

In the case of `Nc1ccccc1NC(=O)c1ccc(C(=O)Nc2cccc(Nc3nc(-c4cccnc4)cs3)c2)cn1`, the melting point fell in the range of 148 to 150 °C.

Compound `COc1ccc2cccc(N3C(=O)CNCC3=O)c2c1` returned a melting point of 232 °C.

`C[C@@H](Nc1ncnc2cc(OC3CCC3)c([N+](=O)[O-])cc12)c1ccccc1` gave a melting point of 108 to 110 °C.

Turning to `CN(C)C(=O)CON(Cc1ccc(F)cc1)C(=O)C=C(O)C(=O)O`, the melting point lay in the range of 118 to 120 °C.

`Cn1c(OCc2ccccc2)noc1=O` returned a melting point of 80 to 83 °C.

`COC(=O)C(NC(=O)Nc1ccc(C=NO)cc1)C(=O)OC` displayed a melting point of 162 °C.

As for `CCCCCCCCCCCCCCCCCCOC(=O)CCC(=O)OC1CC(C)(C)N(C)C(C)(C)C1`, the melting point was in the range of 38 to 40 °C.

For `C=CCOC(=O)c1ccc(OC(=O)c2ccc(OC)c(C34CC5CC(CC(C5)C3)C4)c2)c(C(C)(C)C)c1`, the melting point was 113 to 115 °C.

Take `CCOc1ccc(-c2ccc3c(c2)C=C(C(=O)Nc2ccc(CN(C)C4CCOCC4)cc2)CCN3C)cc1`: the melting point was 150 to 152 °C.

Consider `CCN1CCN([C@](O)(CNC(=O)c2ccc(OCc3cc(C)nc4ccccc34)cc2)C(N)=O)CC1`, for which the melting point was 184 °C.

`c1cc2c3c(c1)nc(SCc1ccncc1)n3CCC2` registered a melting point of 105 to 107 °C.

The compound `O=C(O)c1c[nH]c(Sc2cc(Cl)cc(Cl)c2)c1` showed a melting point of 169 to 172 °C.

Turning to `CN(C)C1CC=C(c2c[nH]c3ccc(NC(=N)c4cccs4)cc23)CC1` (centres undefined), the melting point is 113 to 115 °C.

For the compound `O=C(C(c1ccc(Cl)cc1)c1c(Cl)cc(-n2ncc(=O)[nH]c2=O)cc1Cl)N1CCCC1` (centres undefined), the melting point amounted to 154 °C.

`O=C(CCCN1CCN(c2cccc(Cl)c2Cl)CC1)N1CCc2ccccc21` yielded a melting point of 134 to 136 °C.

With `CCOC(=O)C(Cc1cnc2ccc(OC)cc2c1)NC(=O)OC(C)(C)C` (centres undefined), the melting point worked out at 127 °C.

Regarding `CCCN1Cc2c(Cl)nc(Cl)nc2N1`, the melting point is 80 to 84 °C.

Compound `COc1ccc(C2CCNCC2)cc1OC` registered a melting point of 98 to 100 °C.

For `CC1(c2ccc(Cl)c(Cl)c2)CN(C(=O)c2ccc(F)c3ccccc23)CCN1C(=O)CNC1CCN(Cc2ccccc2)CC1` (racemic), the melting point lay in the range of 93 to 96 °C.

`COc1ccc(Cc2nc3c(c4c2[nH]c2ccccc24)CCC(C)(C)C3)cc1` registered a melting point of 158 °C.

With `Cc1ccc(Nc2nc(-c3ccc(OC(F)(F)F)cc3)cs2)nc1`, the melting point is 205 to 207 °C.

For `O=C(O)C1Cc2cc3c(=O)c4c(Cl)cccc4oc3c(Cl)c2O1` (centres undefined), the melting point fell in the range of 291 to 294 °C.

The compound `CC(C)n1c(=O)n(C(=O)NCC2CCN(CC3(C(=O)O)CCOCC3)CC2)c2ccccc21` had a melting point of 176 °C.

With `COC(=O)C1=C(C)NN=C(c2cccc(Cl)c2)C1c1cccc(Cl)c1` (centres undefined), the melting point turned out to be 204 °C.

In the case of `CC[C@H]1CN(c2ccc3c(=O)c(C(=O)O)cn([C@@H]4C[C@@H]4F)c3c2C)C[C@H]1N`, the melting point was in the range of 232 to 234 °C.

On to `O=C(Oc1c(F)c(F)c(F)c(F)c1F)[C@H]1CCC(=O)N1C(=O)OCc1ccccc1`, for which the melting point was 81 to 82 °C.

Compound `Fc1ccccc1Cn1cnc2c(NC3CC3)nc(C(F)(F)F)nc21` had a melting point of 118 to 119 °C.

Take `O=[N+]([O-])c1cc(Cl)cc(CCc2ccccn2)c1O`: the melting point fell in the range of 97 to 100 °C.

`O=C(O)C1c2ccccc2COc2ccc(C(F)(F)F)cc21` (centres undefined) showed a melting point of 258 to 260 °C.

As to `CCOC(C)OCC(O)CN1C(CO)=Cc2ccsc2S1(=O)=O` (centres undefined), the melting point is 95 to 97 °C.

`COc1ccc(-c2nc(NC(=N)N3CCN(C)CC3)sc2-c2ccc(OC)cc2)cc1` yielded a melting point of 161 to 162 °C.

The compound `CNC(=O)c1ccc(N2CCN(Cc3cc4c(c(OC)c3)OC(C)C(=O)N4)CC2)c(Cl)c1` (centres undefined) returned a melting point of 200 to 203 °C.

With `CC(=O)Oc1ccc(C(=O)c2nc3ccc(OC(C)=O)cc3s2)cc1`, the melting point is 183 °C.

Consider `FC(F)Sc1ccc(-c2ccc(Cl)cc2)[nH]1`, for which the melting point lay within 42 to 46 °C.

As for `O=C1OC(CN2CCC(O)(c3ccc(Cl)cc3)CC2)CN1c1ccccc1` (centres undefined), the melting point lay within 139 to 140 °C.

The compound `CC(=O)NCCCC(=O)N1CCCC2=C1CCc1cc(Cl)ccc12` showed a melting point of 142 to 143 °C.

On to `CCCCC=CCCCCC(=O)CCCCC=CCCCCC=O`, for which the melting point was 80 to 83 °C.

For `COc1cc(Cl)c2c(c1)NC(=O)C(C)(c1ccc(Br)cc1)C2=O` (centres undefined), the melting point fell in the range of 239 to 240 °C.

As for `CCC(CO)NCC(O)COc1ccccc1C#N` (centres undefined), the melting point is 106 to 108 °C.

The values are drawn from a melting point compilation (Tetko et al.; mined from patent text by program, amines drawn as free bases though some values may be those of a salt).
